Experimental data: patent US5484778A, “Phthalocyanine photosensitizers for photodynamic therapy and methods for their use” (priority 1993, dated 1996)
Where two headings read alike, the source gives them in different places.

Experiments:
V79 cells [1] = assay: Clonogenicity, killing of V79 cells using photodynamic therapy (Table 3); assay type: cell-based, Chinese hamster
Method: Using the cell culture methods described above, V79 cells Chinese hamster lung fibroblasts were treated with either 0.5 or 1.0 μM of the phthalocyanines listed in Table 3. About 18 hours thereafter, the cells were irradiated with increasing doses of 675 nm broad band red light from a 500 W tungsten-halogen lamp fitted with a 600 nm high pass filter, to determine the light dosage that would kill 90% of the phthalocyanine treated cells. Where 90% of the cells were not killed, the maximum percent of cells killed were determined, (expressed as % survival) and the related light dosage recorded.

V79 cells [2] = assay: Uptake of additional phthalocyanines into V79 cells (Table 2); settings: for Uptake into V79 cells: 18 hours; for Uptake into V79 cells, composite value: average of all data; for Uptake (from Table 2): repeated in Table 3; for dependence of uptake on phthalocyanine concentration: V79 cells, 1-4 μM; for Uptake into V79 cells, composite value (asterisk): asterisk: listed value is for 1 μM, average would be higher
Method: V79 cells Chinese hamster lung fibroblasts were cultured using the cell culture methods described above. […] When the filters were dry, the phthalocyanines were extracted into ethanol and the absorption determined at the peak wavelength, usually 668 nm.

RIF-1 tumors = assay: PDT of RIF-1 implanted tumors (Table 7); assay type: in vivo, C3H/HeN mice; settings: 5 mg/kg in phosphate buffered saline; 675 nm, 135 J/cm^2
Method: The relative effectiveness at reducing tumor volume of selected phthalocyanine compounds at a given dosage was compared in vivo. RIF-1, i.e., radiation-induced fibrosarcoma, tumors were implanted into the backs of C3H/HeN mice. One tumor was implanted per mouse. Each of the phthalocyanine compounds listed in Table 7 was sonicated and vortexed in corn oil to produce a suspension. When the tumors reached […] in diameter and 2-3 mm in thickness, each mouse received 1 mg/kg in 0.1 ml of the corn oil, of the phthalocyanine suspension. For comparison, select mice received a conventional photosensitizer; either 5 mg/kg of chloroaluminum phthalocyanine tetrasulfonate, herein also referred to as "AlPcTS" in phosphate buffered saline or 5 mg/kg of Photofrin®-II in 5% dextrose. Twenty-four hours after the photosensitizers were administered, the tumors were irradiated with visible radiation delivered by an argon-pumped dye laser. The mice that received a phthalocyanine photosensitizer received light having a wavelength of 675 nm and the mice that received the Photofrin® II photosensitizer received light having a wavelength of 630 nm. Each tumor received 135 J/cm^2 of radiation. Tumor size was measured every day using calipers. The initial tumor volume was 50±10 mm^3. Tumor volume was calculated according to the hemiellipsoid model by the formula: [formula] Where l is length Where W is width

L5178Y cells = assay: Induction of apoptosis (DNA fragmentation) in L5178Y-R cells (Table 6); assay type: cell-based, mouse; settings: for induction of apoptosis: 1 μM at a fluence of 30 kJ/m^2
Method: Mouse lymphoma L5178y-R (hereinafter also referred to as "LY-R") cells were grown in suspension culture as described in Ramakrishnan N., Oleinick, N. L. Clay, M. E., Horng, M. F., Antunez, A. R., and Evans H. H., DNA lesions and DNA degradation in mouse lymphoma L5178Y cells after photodynamic treatment sensitized by chloroaluminum phthalocyanine. Photochem. Photobiol. 50, 373-378, 1989 and Agarwal, M. L., Clay, M. E., Harvey, E. J., Evans, H. H., Antunez, A. R., and Oleinick, N. L. Photodynamic therapy induces rapid cell death by apoptosis in L5178Y mouse lymphoma cells. Cancer Res., 51, 5993-5996, 1991.
The cells were used while in exponential growth. Stock solutions of either 0.5 or 1 mM of PcIV, PcXII, PcX, PcXVIII were prepared in dimethylformamide unless otherwise indicated and added to the 10 mL medium at a rate of 1 μL per mL. After allowing 18 hours for uptake of the phthalocyanine into the cells, the flasks containing the cultures were placed on a glass exposure tray above a 500-W tungsten-halogen lamp. The exposure tray was fitted with a 600-nm high-pass filter. Flasks were exposed to various fluences of red light (up to 30 kJ/m^2) at a fluence rate of approximately 74 W/m^2). After irradiation, the cells were collected by centrifugation.
For measurement of clonogenic cell survival, aliquots were plated in medium containing soft agar as described in Ramakrishnan N., Oleinick, N. L. Clay, M. E., Horng, M. F., Antunez, A. R., and Evans H. H., DNA lesions and DNA degradation in mouse lymphoma L5178Y cells after photodynamic treatment sensitized by chloroaluminum phthalocyanine. Photochem. Photobiol. 50, 373-378, 1989. The aliquots were plated in sufficient numbers to produce 50-200 colonies. The dishes were kept in an incubator at 37° C. in an atmosphere of 5% CO2 and 95% air for 10-14 days to allow viable cells to form colonies. Colonies were counted by eye. Controls treated with the phthalocyanine alone had plating efficiencies of ~90%. The plating efficiencies of the treated cells are normalized to the plating efficiencies of control cells in each experiment. For measurement of the induction of apoptosis, DNA was isolated from the treated and control cells 2 hours after photodynamic therapy, subjected to electrophoresis on 1.5% agarose, stained with ethidium bromide, and visualized by UV transillumination, as described in Agarwal et. al. The results are shown in Tables 4, 5 and 6 and in FIG. 3.
Cells were treated with various concentrations of the compounds listed in the table and various light fluences. DNA gels were prepared and examined for the characteristic "ladder" pattern of DNA fragments. For each Pc, the minimum total PDT dose tested (calculated as the product of the minimum phthalocyanine concentration and the minimum fluence) which produced visible DNA fragments is recorded. […] PcXVIII was also added at 0.5 and 1.0 μM.

[3] = Cricetulus griseus, V79, 1 μM, at 10 kJ/m^2, read-out: Maximum Effect (% survival)
[4] = Cricetulus griseus, V79, 0.5 μM, at 10 kJ/m^2, read-out: Maximum Effect (% survival)

Compound	Uptake into V79 cells (V79 cells [2]; 4 μM)	Uptake into V79 cells, composite value (V79 cells [2])	Uptake (from Table 2) (V79 cells [2])	Uptake into V79 cells (V79 cells [2]; 1 μM)	other results
C[Si](C)(CCCN=C=S)O[Si]1(O)n2c3c4ccccc4c2N=C2N=C(N=c4c5ccccc5c(n41)=NC1=NC(=N3)c3ccccc31)c1ccccc12 (stereo not shown) [Compound XXVI, HOSiPcOSi(CH3)2 (CH2)3 NCS]					Cell survival at highest light dose at 1 µM (V79 cells [1]; Cricetulus griseus, V79, read-out: Maximum Effect (% survival)): 100%
C[Si](C)(CCCO)O[Si]1(O)n2c3c4ccccc4c2N=C2N=C(N=c4c5ccccc5c(n41)=NC1=NC(=N3)c3ccccc31)c1ccccc12 (stereo not shown) [Compound XVII, HOSiPCOSi(CH3)2 (CH2)3 OH]	1.7 ± 0.2 n Moles/10^6 cells	0.4 n Moles/10^6 cells/μM	0.4 n Moles/10^6 cells/μM		Cell survival at highest light dose at 1 µM (V79 cells [1]; [3]): 19%
C[Si](C)(CCCN1CCSCC1)O[Si]1(O)n2c3c4ccccc4c2N=C2N=C(N=c4c5ccccc5c(n41)=NC1=NC(=N3)c3ccccc31)c1ccccc12 (stereo not shown) [Compound XXIV, HOSiPCOSi(CH3)2 (CH2)3 NC4 H8 S]	1.3 ± 0.1 n Moles/10^6 cells		< 0.05 n Moles/10^6 cells/μM	0.003 ± 0.001 n Moles/10^6 cells	Cell survival at highest light dose at 0.5 µM (V79 cells [1]; [4]): 100%; dependence of uptake on phthalocyanine concentration (V79 cells [2]): not linearly dependent upon the phthalocyanine concentration; Uptake into V79 cells, composite value (asterisk) (V79 cells [2]): < 0.05 n Moles/10^6 cells/μM
chloroaluminum phthalocyanine tetrasulfonate [AlPcTS, reference compound]					Doubling Time of Initial Tumor Volume after PDT (RIF-1 tumors): 7 days
CCN(CC)c1ccc2c(c1)Oc1cc(N(CC)CC)ccc1C21c2ccccc2C(=O)N1CCCC[Si](C)(C)O[Si]1(O[Si](C)(C)C(C)(C)C)n2c3c4ccccc4c2N=C2N=C(N=c4c5ccccc5c(n41)=NC1=NC(=N3)c3ccccc31)c1ccccc12 (stereo not shown) [Compound XV, (CH3)3 C(CH3)2 SiOSiPcOSi(CH3)2 (CH2)4 NCOC27 H30 N2 O]	0.14 ± 0.12 n Moles/10^6 cells	< 0.05 n Moles/10^6 cells/μM	0.05 n Moles/10^6 cells/μM	0.01 ± 0.01 n Moles/10^6 cells	Cell survival at highest light dose at 4 µM (V79 cells [1]; Cricetulus griseus, V79, 4 μM, at 20 kJ/m^2, read-out: Maximum Effect (% survival)): 81%; induction of apoptosis (L5178Y cells): did not induce apoptosis
CN(C)CCCCCCCC[Si](C)(C)O[Si]1(O)n2c3c4ccccc4c2N=C2N=C(N=c4c5ccccc5c(n41)=NC1=NC(=N3)c3ccccc31)c1ccccc12 (stereo not shown) [Compound XXII, HOSiPcOSi(CH3)2 (CH2)8 N(CH3)2]					LD 90 (V79 cells [1]; 0.5 μM, 18 h, light dose killing 90% of cells): 10 kJ/m^2; Minimum Demonstrated Condition to induce apoptosis: C × F (L5178Y cells; 0.5 μM): 5.0 μm × kJ/m^2; Minimum Demonstrated Condition to induce apoptosis: Fluence (L5178Y cells; 0.5 μM): 10.0 kJ/m^2
CCCCN(CCCC)CCC[Si](C)(C)O[Si]1(O)n2c3c4ccccc4c2N=C2N=C(N=c4c5ccccc5c(n41)=NC1=NC(=N3)c3ccccc31)c1ccccc12 (stereo not shown) [Compound XXV, HOSiPcOSi(CH3)2 (CH2)3 N(CH2)3 CH3)2]	1.5 ± 0.3 n Moles/10^6 cells		< 0.05 n Moles/10^6 cells/μM	0.02 ± 0.02 n Moles/10^6 cells	Cell survival at highest light dose at 0.5 µM (V79 cells [1]; Cricetulus griseus, V79, 0.5 μM, at 8 kJ/m^2, read-out: Maximum Effect (% survival)): 87%; dependence of uptake on phthalocyanine concentration (V79 cells [2]): not linearly dependent upon the phthalocyanine concentration; Uptake into V79 cells, composite value (asterisk) (V79 cells [2]): < 0.05 n Moles/10^6 cells/μM
C[Si](C)(CCCN1CCOCC1)O[Si]1(O)n2c3c4ccccc4c2N=C2N=C(N=c4c5ccccc5c(n41)=NC1=NC(=N3)c3ccccc31)c1ccccc12 (stereo not shown) [Compound XIX, HOSiPcOSi(CH3)2 (CH2)3 NC4 H8 O]	2.4 ± 0.5 n Moles/10^6 cells		1.3 n Moles/10^6 cells/μM	0.3 ± 0.1 n Moles/10^6 cells	Cell survival at highest light dose at 1 µM (V79 cells [1]; [3]): 81%; photosensitizing activity, killing V79 cells (in words) (V79 cells [1]; discussion of Table 3): less active as a photosensitizer; uptake by V79 cells (in words) (V79 cells [2]): poor uptake; dependence of uptake on phthalocyanine concentration (V79 cells [2]): not linearly dependent upon the phthalocyanine concentration; Uptake into V79 cells, composite value (asterisk) (V79 cells [2]): 0.3 n Moles/10^6 cells/μM
C[Si](C)(CCCCNC(=S)N[C@@H]1O[C@H](CO)[C@@H](O)[C@H](O)[C@H]1O)O[Si]1(O[Si](C)(C)CCCCNC(=S)N[C@@H]2O[C@H](CO)[C@@H](O)[C@H](O)[C@H]2O)n2c3c4ccccc4c2N=C2N=C(N=c4c5ccccc5c(n41)=NC1=NC(=N3)c3ccccc31)c1ccccc12 [Compound XI, SiPc[OSi(CH3)2 (CH2)4 NHCSNHC6 H11l O5 ]2]	0.3 ± 0.1 n Moles/10^6 cells	0.1 n Moles/10^6 cells/μM	0.1 n Moles/10^6 cells/μM	0.1 n Moles/10^6 cells	Cell survival at highest light dose at 1 µM (V79 cells [1]; Cricetulus griseus, V79, 1 μM, at 20 kJ/m^2, read-out: Maximum Effect (% survival)): 100%; induction of apoptosis (L5178Y cells): did not induce apoptosis
CC(=O)OCCC[Si](C)(C)O[Si]1(O)n2c3c4ccccc4c2N=C2N=C(N=c4c5ccccc5c(n41)=NC1=NC(=N3)c3ccccc31)c1ccccc12 (stereo not shown) [Compound XIII, HOSiPcOSi(CH3)2 (CH2)3 OCOCH3]	1.7 ± 0.3 n Moles/10^6 cells	0.4 n Moles/10^6 cells/μM	0.4 n Moles/10^6 cells/μM		Cell survival at highest light dose at 1 µM (V79 cells [1]; Cricetulus griseus, V79, 1 μM, at 15 kJ/m^2, read-out: Maximum Effect (% survival)): 88%
CCCCN1CCN(CCC[Si](C)(C)O[Si]2(O)n3c4c5ccccc5c3N=C3N=C(N=c5c6ccccc6c(n52)=NC2=NC(=N4)c4ccccc42)c2ccccc23)CC1 (stereo not shown) [Compound XXXI, HOSiPCOSi(CH3)2 (CH2)3 NC4 H8 N(CH2)3 CH3]		0.3 n Moles/10^6 cells/μM	0.3 n Moles/10^6 cells/μM		Cell survival at highest light dose at 0.5 µM (V79 cells [1]; [4]): 30%; Uptake into V79 cells (V79 cells [2]; 2 μM): 0.61 ± 0.1 n Moles/10^6 cells
